Experimental data reported in ChEMBL document CHEMBL1133881, “Antimalarial halorosellinic acid from the marine fungus Halorosellinia oceanica” (Bioorg Med Chem Lett, 2001).
Converted amounts (≈) assume the structure as drawn. The source made the active and inactive calls. The rule behind the calls is not given here.

Key:
BC1 cell line [1] = test: Cytotoxic activity against human breast cancer cells of BC-1 cell lines; format: functional, cell-based
KB [2] = test: Cytotoxic activity against human epidermoid carcinoma cells of KB cell lines in mouth; format: functional, cell-based
Plasmodium falciparum [3] = test: Antimalarial activity against multidrug-resistant Plasmodium falciparum K1; Not active at 20 ug/mL; format: functional, organism-based
[4] = tested on: Mycobacterium tuberculosis; test: Antimycobacterial activity was assessed against Mycobacterium tuberculosis H37Ra using theMicroplate Alamar Blue Assay (MABA); NA means inactive at 200 ug/mL; format: functional, organism-based
KB [5] = test: Cytotoxic activity against human epidermoid carcinoma cells of KB cell lines in mouth; NA means inactive at 20 ug/mL; format: functional, cell-based
BC1 cell line [6] = test: Cytotoxic activity against human breast cancer cells of BC-1 cell lines; NA means inactive at 20 ug/mL; format: functional, cell-based
Plasmodium falciparum [7] = test: Antimalarial activity against multidrug-resistant Plasmodium falciparum K1; format: functional, organism-based
[8] = tested on: Mycobacterium tuberculosis; test: Antimycobacterial activity was assessed against Mycobacterium tuberculosis H37Ra using theMicroplate Alamar Blue Assay (MABA); format: functional

Compound	IC50 (BC1 cell line [1]) [µg/mL]	IC50 (KB [2]) [µg/mL]	IC50 (Plasmodium falciparum [3])	MIC [4]	IC50 (KB [5])	IC50 (BC1 cell line [6])	IC50 (Plasmodium falciparum [7]) [µg/mL]	MIC [8] [µg/mL]
CCCCC/C=C(/C(=O)O)C(C)C(=O)O (centres undefined)	5 (≈ 23.3 µM)	13 (≈ 60.7 µM)	Not Active	inactive				
CCCCC/C=C(/C(=O)O)C(C)C(=O)OC (centres undefined)			Not Active	inactive	Not Active	Not Active		
CC(=O)O[C@@H]1/C=C/[C@@](C)(O)C(=O)[C@@H](C)C/C=C/[C@H]2[C@@H]3O[C@]3(C)[C@@H](C)[C@H]3[C@H](Cc4ccccc4)NC(=O)[C@@]312 [CYTOCHALASIN Q]	1 (≈ 1.97 µM)	3 (≈ 5.91 µM)		inactive			17 (≈ 33.5 µM)	
C/C(=C\C1OC(C)(C)O[C@@H]1[C@H](C)C1=CC[C@@]2(C)C[C@@H]3[C@H](C)CC[C@@H]3/C(C(=O)O)=C\C[C@H]12)C(=O)O (some centres undefined)					Not Active	Not Active	19 (≈ 40.2 µM)	200 (≈ 423 µM)
C[C@H]1Cc2c(C(=O)O)ccc(O)c2C(=O)O1	3 (≈ 13.5 µM)	3 (≈ 13.5 µM)		inactive			4 (≈ 18 µM)	
C/C(=C\[C@H](O)[C@H](O)[C@H](C)C1=CC[C@@]2(C)C[C@@H]3[C@H](C)CC[C@@H]3/C(C(=O)O)=C\C[C@H]12)C(=O)O					Not Active	Not Active	13 (≈ 30.1 µM)	200 (≈ 462 µM)
